Here are results for 2 compounds from patent publication US7423181B2, “Aminoalkoxy-functional chalcones” (Lica Pharmaceuticals A/S, priority 2002, dated 2008).

Structures are written as SMILES. Values after ≈ are worked out from the molar mass of the structure shown. Read-outs that look alike come from different tables or passages of the source. Some results are limits rather than exact numbers.

Series [1] relates to Plasmodium falciparum 7G8(Cq-res). The conditions noted are these: read-out: Plasmodium falciparum IC50.
Series [2] in a line: Determination of metabolic stability (liver microsomes). The series is classed as in vitro ADME. To be noted: rat liver microsomes, 20 μM, 15 min. Here is the method:
Determination of Metabolic Stability
Incubations were performed with Wistar rat liver microsomes (0.25 mg/ml) in 2% sodium bicarbonate solution. NADP (0.13 mg/ml), glucose-6-phosphate (0.63 mg/ml) and glucose-6-phosphate dehydrogenase (0.38 units/ml) were used as NADPH generation system and UDPGA (0.48 mg/ml) was added to include the phase II reaction, glucuronic acid conjugation, in the assay. After 5 minutes of pre-incubation the reaction was started by addition of the test article to give a final concentration of 20 μM. Samples were incubated for 15 min at 37° C. and the reactions were terminated by addition of equal volumes of acetonitrile. Blank incubations were performed at the same concentration but without addition of microsomes. Both blank and microsome-containing samples were made in replicats of three. Prior to analysis samples were centrifuged for 10 min. at 3500 rpm,HPLC system:
Initial conditions were 40% mobile phase A (acetonitrile) and 60% mobile phase B (10 mM ammonium acetate pH 9.5). During the first 20 minutes, the mobile phase was changed via a linear gradient to 90% A and 10% B. This was followed by a 5 minutes linear gradient to initial conditions, which were maintained for 5 min. The flow rate was 0.20 m)/min and injection volume 10 μl.
(Microsomes from liver hold many membrane-bound enzymes, among them those of drug oxidation.)

Series [3] concerns Plasmodium falciparum DD2(Cq-res). To be noted: read-out: Plasmodium falciparum IC50.
In series [4] the test system is Plasmodium falciparum 3D7. Nature of the series: Plasmodium falciparum assay. The format is cell-based.
Another series concerns Plasmodium berghei K173. To be noted: multiple oral administrations, NMRI female mice, FIG. 7.
The conditions of series [5]: mice.
The test system of series [6] is Plasmodium falciparum K1(Cq-res). To be noted: read-out: Plasmodium falciparum IC50.
For series [7], the system named is cutaneous and visceral Leishmania infection. The conditions noted are these: cited from earlier work.
Series [8] has as its system parasitic or bacterial infections. Nature of the series: In vivo potency of chalcones.
In another series the test system is P.yoelii and P.berghei. The conditions noted are these: cited from earlier work.
The next series in a line: Pharmacokinetic studies. The format is in vivo, mice. Here is the method: Samples of serum were taken at defined timepoints.
The supernatant was used for the analysis.
The flow rate was […], injection volume 10 μl.

Series [9] relates to Staphylococcus aureus ATCC29213. Nature of the series: MIC determination in broth microdilution assay. The conditions noted are these: A: Staphylococcus aureus ATCC29213. A general note: Broth dilution looks for growth in wells or tubes with falling amounts of substance.
Series [10] concerns panel of 10 different non-fastidious bacteria. Description: Screening against panel of non-fastidious bacteria.
The subject of series [11] is Streptococcus pneumoniae #998 (clinical isolate). Nature of the series: MIC determination in broth microdilution assay. The conditions noted are these: F: Streptococcus pneumoniae #998.
Series [12] concerns Staphylococcus aureus ATCC33591(resistant to methicillin). Description: MIC determination in broth microdilution assay. The conditions noted are these: B: Staphylococcus aureus ATCC33591(resistant to methicillin).
The nature of series [13]: Determination of solubility. The series is classed as physicochemical. To be noted: reference chalcones. The procedure:
Determination of Solubility
Solubility of the compounds was determined by preparing a saturated solution of compound in 0.3 M phosphate buffer (pH 7.4±0.3) in a brown glass tube. The suspensions were rotated slowly for 24 hours. Aliquots were centrifuged for 10 minutes at 14.000 rpm and supernatants were diluted in 40% (v/v) acetonitrile in water prior to HPLC analysis. Concentrations of analytes were quantified against a standard curve and used as term of solubility. The HPLC-UV method used for the assessment of solubility is the same as used in the in vitro metabolism assay.

The subject of another series is Eschericia coli ESS. Nature of the series: MIC determination in broth microdilution assay. The conditions noted are these: H: Eschericia coli ESS.
Series [14] relates to Enterococcus faecalis ATCC29212. Nature of the series: MIC determination in broth microdilution assay. To be noted: D: Enterococcus faecalis ATCC29212.
In series [15] the test system is Enterococcus faecium #17501 (vancomycin-resistant clinical isolate). Nature of the series: MIC determination in broth microdilution assay. To be noted: E: Enterococcus faecium #17501 (vancomycin-resistant).
The subject of series [16] is dihydroorotate dehydrogenase (DHODH). Nature of the series: DHODH assay. The format is biochemical. The conditions noted are these: at 10 μM. Here is the method: 100 μl chalcone or 0.1 M Tris-HCl pH 8.0 is added to a well in a 96-wells microtiter plate. Then 50 μl enzyme dilution is added. The microtiter plate is placed in the Powerwavex340 and the enzymatic reactions starts when adding 100 μl assay mixture. The reaction are measured every 20 sec. for 10 min. The samples with chalcones are compared with the samples with 0.1 M Tris-HCl pH 8.0 and the percent inhibition is calculated.
Enzyme dilution: The solution of recombinant purified enzyme is dissolved in 0.1 M Tris-HCl pH 8 to give an initial velocity of 0.04-0.05 ΔA/min.
2,6-dichlorophenolindophenol (DCIP)-stock solution: 40 mg DCIP and 10 ml 99% Ethanol are mixed for 10 min at RT. Then 100 μl 1.0 M Tris-HCl pH 8 and miliQ H2O are added to a final volume of 100 ml. The A600 of the DCIP-stock solution are measured in a microtiter plate on the Powerwavex340 (Bio-Tek instruments,Inc.)
[…]: 25 mM dihydroorotate stock-solution is prepared by first dissolving in the same amount of mol NaOH and then miliQ H2O is added to the final volume.
Assay mix (10 ml solution): 600 μl of DHODH-stock solution and X ml (depending on the A600 value of stock-solution) DCIP to a final A600=2.5 are mixed. Then 0.1 M Tris-HCl pH 8.0 are added to a final volume of 10 ml.
Preparation of compound soluton: A 10 mM stock-solution of compound (e.g. a chalcone derivative) is made in dimethylsulfoxid (DMSO). The compound is then diluted in 0.1 M Tris-HCl pH 8 to the test concentrations. The final DMSO concentration in the sample is 10%

In general, IC50 refers to the midpoint of a concentration-inhibition curve. As a reminder, the bioavailability is dose-corrected exposure relative to a reference, in per cent. Low readings indicate poor availability, high ones good availability. A word on the MIC: it is the lowest concentration found to suppress growth. Low values mean greater potency, high ones weaker potency.

Take `CN(C)CCOc1ccc(-c2ccccc2C(F)(F)F)cc1/C=C/C(=O)c1ccccc1CN(C)C` [Compound C130, (E)-3-[4-(2-Dimethylamino-ethoxy)-2′-trifluoromethyl-biphenyl-3-yl]-1-(2-dimethylaminomethyl-phenyl)-propenone]: the IC50 in series [1] turned out to be 0.05 µM; in series [3] it was 0.06 µM; in series [4] (3D7(Cq-sen) (Table 3), read-out: Plasmodium falciparum IC50) it was 0.03 µM; in series [4] (Plasmodium falciparum 3D7 (Table 2), read-out: IC50) it was 0.03 µM; in series [6], 0.04 µM. Further, the “Metabolic turn-over in vitro” value in series [2] was 6%. Besides, the “times more potent than LicA” value in series [4] (dose-response curve at Plasmodium falciparum, FIG. 4) is listed as 213 times. Moreover, the “effect on development of the infection” value in the series with Plasmodium berghei K173 is listed as “inhibit the development of the infection”. In series [5], this compound registered a Metabolic turn-over of 77%.
With `C=CC(C)(C)c1cc(/C=C/C(=O)c2ccc(O)cc2)c(OC)cc1O` [LicA, Licochalcone A], the “efficacy in experimental animal models” value in series [7] was “efficacy in experimental animal models of cutaneous and visceral Leishmania infection”. Besides, the in vivo potency in series [8] came out at 50 mg/kg. Further, the “protection of mice from infection” value with P.yoelii and P.berghei is “protects mice from infection with P.yoelii and P.berghei”. Also, the bioavailability in the series “Pharmacokinetic studies” (in mice) is < 6%. Moreover, the t1/2 in vivo in the series “Pharmacokinetic studies” (in vivo) is 10 min. In addition, the minimal inhibitory concentration (MIC) was 37.5 µM (≈ 12.7 µg/mL) in series [9]; 75.0 µM (≈ 25.4 µg/mL) in series [11]; 37.5 µM (≈ 12.7 µg/mL) in series [12]; 300.0 µM (≈ 102 µg/mL) in the series on Eschericia coli ESS; 37.5 µM (≈ 12.7 µg/mL) in [14]; 37.5 µM (≈ 12.7 µg/mL) in series [15]. In [10] (Gram-positive bacteria), the “bactericidal activity against common pathogenic Gram-positive non-fastidious bacteria” value is on record as “moderate bactericidal activity”. Further, in series [10] (prototype pathogenic Gram-negative bacterium), the “activity against Eschericia coli” value is on record as “modest or no activity”. Further, the “Metabolic turn-over in vitro” value in series [2] and in series [2] (listed as Lica) was 100% in each case. Moreover, in [13], the aqueous solubility result was “approximately 0.01 mg/ml”. The “Inhibition of DHODH” value in series [16] worked out at 25%.
